Data set [1] in a line: The drug is tested on Clostridium symbiosum strain: ATCC14940 for biotransformation. The drug concentrations were measured before and after a 12-h incubation by liquid-chromatography-coupled mass spectrometry (LC–MS). The settings on record: 2 µM.
The conditions of data set [2]: bacteroides thetaiotaomicron, 12 h, 2 µM.
Description: The drug is tested on Bacteroides thetaiotaomicron strain: 7330 for biotransformation. The drug concentrations were measured before and after a 12-h incubation by liquid-chromatography-coupled mass spectrometry (LC–MS)
The conditions of data set [3]: akkermansia muciniphila, 12 h, 2 µM.
Description: The drug is tested on Akkermansia muciniphila strain: ATCC BAA-835 for biotransformation. The drug concentrations were measured before and after a 12-h incubation by liquid-chromatography-coupled mass spectrometry (LC–MS)
A short description of data set [4]: The drug is tested on Ruminococcus lactaris strain: ATCC29176 for biotransformation. The drug concentrations were measured before and after a 12-h incubation by liquid-chromatography-coupled mass spectrometry (LC–MS). As to conditions: 2 µM.
For data set [5] the following is noted: bacteroides eggerthii, 12 h, 2 µM.
Description: The drug is tested on Bacteroides eggerthii strain: DSM20697 for biotransformation. The drug concentrations were measured before and after a 12-h incubation by liquid-chromatography-coupled mass spectrometry (LC–MS)
The nature of data set [6]: The drug is tested on Bacteroides uniformis strain: ATCC8492 for biotransformation. The drug concentrations were measured before and after a 12-h incubation by liquid-chromatography-coupled mass spectrometry (LC–MS). As to conditions: 2 µM.
For data set [7] the following is noted: bacteroides thetaiotaomicron, 12 h, 2 µM. This is another data set of the same source.
Description: The drug is tested on Bacteroides thetaiotaomicron strain: VPI-5482 for biotransformation. The drug concentrations were measured before and after a 12-h incubation by liquid-chromatography-coupled mass spectrometry (LC–MS)
The conditions of data set [8]: anaerostipes sp., 12 h, 2 µM.
Description: The drug is tested on Anaerostipes sp. strain: fecal isolate for biotransformation. The drug concentrations were measured before and after a 12-h incubation by liquid-chromatography-coupled mass spectrometry (LC–MS)
For data set [9] the following is noted: roseburia intestinalis, 12 h, 2 µM.
Description: The drug is tested on Roseburia intestinalis strain: L1-82 for biotransformation. The drug concentrations were measured before and after a 12-h incubation by liquid-chromatography-coupled mass spectrometry (LC–MS)
The nature of data set [10]: The drug is tested on Bacteroides dorei strain: DSM17855 for biotransformation. The drug concentrations were measured before and after a 12-h incubation by liquid-chromatography-coupled mass spectrometry (LC–MS). The settings on record: phocaeicola dorei, 2 µM.
Data set [11] is described as follows: The drug is tested on Clostridium asparagiforme strain: DSM15981 for biotransformation. The drug concentrations were measured before and after a 12-h incubation by liquid-chromatography-coupled mass spectrometry (LC–MS). As to conditions: enterocloster asparagiformis, 2 µM. The data set is classed as ADME. Details: dose 2 uM, timepoint 0 vs 12 hours.
The conditions of data set [12]: segatella copri, 12 h, 2 µM.
Description: The drug is tested on Prevotella copri strain: DSM18205 for biotransformation. The drug concentrations were measured before and after a 12-h incubation by liquid-chromatography-coupled mass spectrometry (LC–MS)
Data set [13] can be described thus: The drug is tested on Bacteroides vulgatus strain: ATCC8482 for biotransformation. The drug concentrations were measured before and after a 12-h incubation by liquid-chromatography-coupled mass spectrometry (LC–MS). As to conditions: phocaeicola vulgatus, 2 µM.
The conditions of data set [14]: bacteroides fragilis, 12 h, 2 µM.
Description: The drug is tested on Bacteroides fragilis strain: DS-208 for biotransformation. The drug concentrations were measured before and after a 12-h incubation by liquid-chromatography-coupled mass spectrometry (LC–MS)
Data set [15] in a line: The drug is tested on Bifidobacterium ruminantium strain: fecal isolate for biotransformation. The drug concentrations were measured before and after a 12-h incubation by liquid-chromatography-coupled mass spectrometry (LC–MS). The settings on record: 2 µM.
Data set [16] in a line: The drug is tested on Bacteroides pectinophilus strain: ATCC43243 for biotransformation. The drug concentrations were measured before and after a 12-h incubation by liquid-chromatography-coupled mass spectrometry (LC–MS). As to conditions: 2 µM.
The conditions of data set [17]: bacteroides intestinalis, 12 h, 2 µM.
Description: The drug is tested on Bacteroides intestinalis strain: DSM17393 for biotransformation. The drug concentrations were measured before and after a 12-h incubation by liquid-chromatography-coupled mass spectrometry (LC–MS)
For data set [18] the following is noted: bacteroides fragilis, 12 h, 2 µM. The source holds these as a separate data set.
Description: The drug is tested on Bacteroides fragilis strain: 3397 (T10) for biotransformation. The drug concentrations were measured before and after a 12-h incubation by liquid-chromatography-coupled mass spectrometry (LC–MS)
A short description of data set [19]: The drug is tested on Alistipes indistinctus strain: DSM22520 for biotransformation. The drug concentrations were measured before and after a 12-h incubation by liquid-chromatography-coupled mass spectrometry (LC–MS). The settings on record: 2 µM.

For the compound `NC12CC3CC(CC(C3)C1)C2` [AMANTADINE], the “Bacterial Biotransformation” value is “Compound NOT metabolized” in [1]; “Compound metabolized” in [2]; “Compound NOT metabolized” in [3]; “Compound NOT metabolized” in data set [4]; “Compound NOT metabolized” in data set [5]; “Compound metabolized” in [6]. Moreover, the “Bacterial Biotransformation” value in [7], in [8], in data set [9], in data set [10], in data set [11] and in data set [12] was “Compound NOT metabolized” throughout. Besides, the “Bacterial Biotransformation” value is reported as “Compound NOT metabolized” in data set [13], “Compound metabolized” in data set [14], “Compound metabolized” in data set [15] and “Compound NOT metabolized” in data set [16].
As for `CN/C(=N/CCSCc1nc[nH]c1C)NC#N` [CIMETIDINE], the “Bacterial Biotransformation” value in data set [1] was “Compound NOT metabolized”; in data set [3] it was “Compound NOT metabolized”; in data set [4], “Compound NOT metabolized”; in data set [5] it was “Compound NOT metabolized”; in data set [6], “Compound metabolized”; in [7], “Compound metabolized”. Besides, the “Bacterial Biotransformation” value is “Compound NOT metabolized” in [17]; “Compound NOT metabolized” in [8]; “Compound NOT metabolized” in [9]; “Compound metabolized” in data set [10]; “Compound NOT metabolized” in [11]; “Compound metabolized” in [18]. The “Bacterial Biotransformation” value in data set [15], in data set [19] and in data set [16] was “Compound NOT metabolized” in each case.
Turning to `COC(=O)[C@H](c1ccccc1Cl)N1CCc2sccc2C1.O=S(=O)(O)O` [CLOPIDOGREL BISULFATE], the “Bacterial Biotransformation” value is reported as “Compound NOT metabolized” in [1]; “Compound metabolized” in [2]; “Compound NOT metabolized” in data set [3]; “Compound NOT metabolized” in data set [4]; “Compound metabolized” in [5]; “Compound metabolized” in [6]. Also, the “Bacterial Biotransformation” value is recorded as “Compound metabolized” in data set [7]; “Compound NOT metabolized” in [17]; “Compound NOT metabolized” in data set [8]; “Compound NOT metabolized” in data set [9]; “Compound metabolized” in data set [10]; “Compound NOT metabolized” in data set [11]. For the same compound, the “Bacterial Biotransformation” value is on record as “Compound metabolized” in [18]; “Compound NOT metabolized” in data set [12]; “Compound metabolized” in data set [13]; “Compound metabolized” in [14]; “Compound NOT metabolized” in [19]; “Compound NOT metabolized” in data set [16].
In the case of `Cc1nc2n(c(=O)c1CCN1CCC(c3noc4cc(F)ccc34)CC1)CCCC2` [RISPERIDONE], the “Bacterial Biotransformation” value was “Compound metabolized” in data set [1]; “Compound NOT metabolized” in [2]; “Compound NOT metabolized” in [3]; “Compound metabolized” in data set [4]; “Compound NOT metabolized” in [6]; “Compound NOT metabolized” in data set [7]. The “Bacterial Biotransformation” value in [17] is listed as “Compound NOT metabolized”; in data set [9], “Compound metabolized”; in data set [11] it was “Compound metabolized”; in data set [18], “Compound NOT metabolized”; in data set [12], “Compound NOT metabolized”; in data set [13], “Compound NOT metabolized”. Further, the “Bacterial Biotransformation” value in [14] and in data set [19] was “Compound metabolized” in each case.

Values taken from ChEMBL document CHEMBL5303573, “Mapping human microbiome drug metabolism by gut bacteria and their genes” (Nature, 2019).
